Patent publication US6774121B1, “Phospholipid prodrugs of anti-proliferative drugs” (D-Pharm, Ltd., priority 1999, dated 2004)

Key:
[1] = test system: human leukemia cell line CCRF-CEM (CEM); assay: MTT cell growth inhibition, CEM cells (Example 4); type: cell-based; conditions: 72 hours, MTT assay; read-out: EC50, nMol CEM
Protocol: (§1) A series of methotrexate derivatives were screened for their inhibitory effect on cell growth. Three tumor cell lines were used for this screen: i) human leukemia cell line CCRF-CEM which is MTX-sensitive (herein denoted as CEM), ii) a mutant of CEM cell line which is MTX-resistant due to a mutation in the RFC (herein denoted as CEM-MTX; provided by Dr. […], Technion, Israel), and iii) rat C6 glioma cell line. Cells were seeded at a density of 10^4 cells/ml in RPMI medium supplemented with 10% FCS in 96 well plates. The cultured cells were incubated, during their linear growth phase, in the presence and absence of various concentrations of MTX derivatives. The tested compounds were prepared as 1 mM stock in absolute ethanol or DMSO and were diluted into the medium. The highest vehicle presence in the assay was 5% of the vehicle. After 72 hours at 37° C. the cytotoxic effect on the cells was estimated by using the colorimetric MTT assay (Mosmann (1983) J. Immunol Methods 65: 55-63) that measures mitochondrial reductase activity and serves for quantitative assessment of cellular viability. […] The EC50 values were calculated from dose response curves for each tested compound.

[2] = test system: CEM-MTX (MTX-resistant mutant of CEM, mutation in the RFC); assay: MTT cell growth inhibition, MTX-resistant CEM-MTX cells (Example 4); type: cell-based, human; conditions: for EC50: 72 hours, MTT assay, read-out: EC50, nMol CEM-MTX
Protocol: A series of methotrexate derivatives were screened for their inhibitory effect on cell growth. Three tumor cell lines were used for this screen: i) human leukemia cell line CCRF-CEM which is MTX-sensitive (herein denoted as CEM), ii) a mutant of CEM cell line which is MTX-resistant due to a mutation in the RFC (herein denoted as CEM-MTX; provided by Dr. Y. Assraf, Technion, Israel), and iii) rat C6 glioma cell line.
Cells were seeded at a density of 10^4 cells/ml in RPMI medium supplemented with 10% FCS in 96 well plates. The cultured cells were incubated, during their linear growth phase, in the presence and absence of various concentrations of MTX derivatives. The tested compounds were prepared as 1 mM stock in absolute ethanol or DMSO and were diluted into the medium. The highest vehicle presence in the assay was 5% of the vehicle. After 72 hours at 37° C. the cytotoxic effect on the cells was estimated by using the colorimetric MTT assay (Mosmann (1983) J. Immunol Methods 65: 55-63) that measures mitochondrial reductase activity and serves for quantitative assessment of cellular viability. Drug concentration required for inhibiting the growth of 50% of cell population in culture over a 72 hour period incubation, is defined as EC50.
The EC50 values were calculated from dose response curves for each tested compound.

[3] = test system: rat C6 glioma cell line; assay: MTT cell growth inhibition, C6 glioma cells (Example 4); type: cell-based; conditions: 72 hours, MTT assay; read-out: EC50, nMol C6 glioma
Protocol: as §1

[4] = test system: Friend cells (an erythroleukemic cell line); assay: MTT cytotoxicity, Friend cells (Example 5); type: cell-based; conditions: 72 hour
Protocol: The toxicity of methotrexate derivatives of the invention (DP-MTX) was evaluated in an additional cell-culture system. The doses required to inhibit the growth of cultured Friend cells (an erythroleukemic cell line) by 50%, over a 72 hour period (ED50), were determined using a mitochondrial viability (MTT) endpoint assay.
Friend cells were seeded at a density of 10^4 cells/ml in RPMI medium supplemented with 10% FCS in 96 well plates. The cultured cells were incubated, during their linear growth phase, in the presence and absence of various concentrations of MTX derivatives. After 72 hours at 37° C., cell viability was estimated by using the colorimetric MTT assay.

[5] = test system: PLA2; conditions: isoform not stated; read-out: IC50 of known inhibitors of PLA2; cited from earlier work
[6] = test system: L1210; assay: MTT cytotoxicity, parent L1210 cells (Example 9); type: cell-based; conditions: Mus musculus
[7] = test system: RFC-mediated MTX-resistant cell line (L1210-MTX); assay: MTT cytotoxicity, L1210-MTX cells (Example 9); type: cell-based; conditions: Mus musculus

Compound | EC50 [1] | EC50 [2] | EC50 [3] | ED50 [4] | further results
CCCCCCCCCCCCCCCCCC(=O)OC[C@H](COP(=O)([O-])OCC[N+](C)(C)C)OC(=O)CCNC(=O)C(CCC(=O)O)NC(=O)c1ccc(N(C)Cc2cnc3nc(N)nc(N)c3n2)cc1 (stereo partly drawn) [DP-MTX-93, 1-Stearoyl-2-[3-(α-MTX amido)-Propanoyl]-sn-Glycero-3-phosphocholine] | 27 nM | 4.65 µM | 417 nM | 97.5 nmol | 
CCCCCCCCCCCCCCCCCC(=O)OC[C@H](COP(=O)([O-])OCC[N+](C)(C)C)OC(=O)CCCCCNC(=O)C(CCC(=O)O)NC(=O)c1ccc(N(C)Cc2cnc3nc(N)nc(N)c3n2)cc1 (stereo partly drawn) [DP-MTX-106, 1-Stearoyl-2-[6-(α-MTX amido)-Hexanoyl]-sn-Glycero-3-phosphocholine] | 499 nM | 8.4 µM | 3220 nM | 390 nmol | 
CCCCCCCCCCCCCCCCCC(=O)OC[C@H](COP(=O)([O-])OCC[N+](C)(C)C)OC(=O)CCCCCCCNC(=O)[C@H](CCC(=O)OCCCCCCCCCCCC)NC(=O)c1ccc(N(C)Cc2cnc3nc(N)nc(N)c3n2)cc1 [DP-MTX-127, 1-Stearoyl-2-[8-(γ-dodecylate-α-MTX amido)-Octanoyl]-sn-Glycero-3-phosphocholine] |  |  | 795 nM |  | 
CCCCCCCCCCCCCCCCCC(=O)OC[C@H](COP(=O)([O-])OCC[N+](C)(C)C)OC(=O)CCNC(=O)[C@H](CCC(=O)OCCCCCCCCCCCC)NC(=O)c1ccc(N(C)Cc2cnc3nc(N)nc(N)c3n2)cc1 [DP-MTX-128, 1-Stearoyl-2-[3-(γ-dodecylate-α-MTX amido)Propanoyl]-sn-Glycero-3-phosphocholine] | 771 nM | 1.6 µM |  |  | 
CCCCCCCCCCCCCCCCCC(=O)OC[C@H](COP(=O)([O-])OCC[N+](C)(C)C)OC(=O)CCCNC(=O)C(CCC(=O)O)NC(=O)c1ccc(N(C)Cc2cnc3nc(N)nc(N)c3n2)cc1 (stereo partly drawn) [DP-MTX-129, 1-Stearoyl-2-[4-(α-MTX amido)-Butanoyl]-sn-Glycero-3-phosphocholine] | 821 nM | 5.98 µM | 3110 nM | 97.5 nmol | 
CCCCCCCCCCCCCCCCCC(=O)OC[C@H](COP(=O)([O-])OCC[N+](C)(C)C)OC(=O)CCCCCCCNC(=O)C(CCC(=O)O)NC(=O)c1ccc(N(C)Cc2cnc3nc(N)nc(N)c3n2)cc1 (stereo partly drawn) [DP-MTX-142, 1-Stearoyl-2-[8-(α-MTX amido)-Octanoyl]-sn-Glycero-3-phosphocholine] | 6340 nM | 11.6 µM | 36000 nM | 3000 nmol | 
CC(Cc1ccc(O)c(O)c1)C(C)Cc1ccc(O)c(O)c1 (stereo not drawn) [NDGA] |  |  |  |  | IC50 [5]: 40 µM
CCN(CC)CCCC(C)Nc1c2ccc(Cl)cc2nc2ccc(OC)cc12 (stereo not drawn) [Quinacrine] |  |  |  |  | IC50 [5]: 390 µM
CC(=O)O[C@H]1C(=O)[C@@]2(C)[C@H]([C@H](OC(=O)c3ccccc3)[C@]3(O)C[C@H](OC(=O)[C@H](O)[C@@H](NC(=O)c4ccccc4)c4ccccc4)C(C)=C1C3(C)C)[C@]1(OC(C)=O)CO[C@@H]1C[C@@H]2O [TAX, Taxol] |  |  |  |  | EC50 [6]: 8 nM; EC50 [7]: 8 nM
CCCCCCCCCCCCOC(=O)[C@H](CCC(=O)O)NC(=O)c1ccc(N(C)Cc2cnc3nc(N)nc(N)c3n2)cc1 [α-C12H25-MTX, α:-dodecylate-MTX] | 88 nM | 9.42 µM |  |  | inhibiting the growth of the MTX-resistant cell line, CEM-MTX (in words) [2]: not effective
CCCCCCCCCCCCOC(=O)CC[C@H](NC(=O)c1ccc(N(C)Cc2cnc3nc(N)nc(N)c3n2)cc1)C(=O)OCCCCCCCCCCCC [α-C12H25-MTX-γ-C12H25, α-dodecylate-MTX-γ-dodecylate] | 4860 nM | 5.09 µM | 807 nM |  | inhibiting the growth of the MTX-resistant cell line, CEM-MTX (in words) [2]: not effective
CCCCCCCCCCCCOC(=O)CC[C@H](NC(=O)c1ccc(N(C)Cc2cnc3nc(N)nc(N)c3n2)cc1)C(=O)O [γ-C12H25-MTX, γ-dodecylate-MTX] | 13 nM | 4.86 µM |  |  | inhibiting the growth of the MTX-resistant cell line, CEM-MTX (in words) [2]: not effective
